Laboratory results: US20260216239A1 (Arizona Board of Regents on Behalf of the University of …, priority 2020, published 2026)

What was measured:
Bothrops moojeni venom = assay: Thrombelastography in human plasma of venom procoagulant activity after isolated exposure of venom to compounds; type: biochemical; settings: venom exposed to 100 μM carboplatin, 1 mM CORM-2 or both; venom 2 μg/ml in plasma
Procedure: (§1) Thrombelastographic analyses. The volumes of subsequently described plasmatic and other additives summed to a final volume of 360 μl. Samples were composed of 320 μl of plasma; 16.4 μl of PBS, 20 μl of 200 mM CaCl2), and 3.6 μl of PBS or venom mixture, which were pipetted into a disposable cup in a Thrombelastograph® hemostasis system (Model 5000, Haemonetics Inc., Braintree, MA, USA) at 37° C., and then rapidly mixed by moving the cup up against and then away from the plastic pin five times. The following viscoelastic parameters described previously (see, Nielsen V G (2019) J Thromb Thrombolysis 47, 73-79; Gessner G, et al., (2017) Eur J Pharmacol 815, 33-41; Nielsen V G, Wagner M T, Frank N (2020) Int J Mol Sci 21, 2082; Lazić D, Arsenijević A, Puchta R, Bugarčić ŽD, Rilak A (2016) Dalton Trans 45, 4633; Hanif M, et al., (2017) ChemPlusChem 82, 841-847) were measured: time to maximum rate of thrombus generation (TMRTG): this is the time interval (minutes) observed prior to maximum speed of clot growth; maximum rate of thrombus generation (MRTG): this is the maximum velocity of clot growth observed (dynes/cm^2/second); and total thrombus generation (TTG, dynes/cm^2), the final viscoelastic resistance observed after clot formation.
(§2) B. moojeni. This venom was exposed to 0 or 1 mM CORM-2 in the presence of 0 or 100 μM RuCl3 in PBS for at least 5 minutes at room temperature prior to placement into plasma followed immediately with commencement of thrombelastographic analysis. The final concentration of this venom in plasma was 2 μg/ml.
(§3) Given the aforementioned, the experimental conditions utilized were: 1) V condition—venom in PBS; 2) Ru(II) condition—venom exposed to CORM-2; 3) Ru(III) condition—venom exposed to RuCl3; 4) Ru(II+III) condition—venom exposed to CORM-2 and RuCl3 simultaneously. After the 5 minute period at room temperature, 3.6 μl of one of these solutions was added to the plasma sample in the plastic thrombelastograph cup.
(§4) The volumes of subsequently described plasmatic and other additives summed to a final volume of 360 μl. Samples were composed of 320 μl of plasma; 16.4 μl of PBS, 20 μl of 200 mM CaCl2), and 3.6 μl of PBS or venom mixture, which were pipetted into a disposable cup in a Thrombelastograph® hemostasis system (Model 5000, Haemonetics Inc., Braintree, MA, USA) at 37° C., and then rapidly mixed by moving the cup up against and then away from the plastic pin five times. The following viscoelastic parameters described previously (see, Nielsen, V. G. J Thromb Thrombolysis 2019, 47, 73-79; Gessner, G.; et al., Eur J Pharmacol 2017, 815, 33-41; Nielsen, V. G.; Wagner, M. T.; Frank, N. Int J Mol Sci 2020, 21, 2082; Lazid, D.; et al., Dalton Trans 2016, 45, 4633; Hanif, M.; et al., ChemPlusChem 2017, 82, 841-847) were measured: time to maximum rate of thrombus generation (TMRTG): this is the time interval (minutes) observed prior to maximum speed of clot growth; maximum rate of thrombus generation (MRTG): this is the maximum velocity of clot growth observed (dynes/cm2/second); and total thrombus generation (TTG, dynes/cm2), the final viscoelastic resistance observed after clot formation.
as §2, with “CORM-2 or CORM-3” for “CORM-2”, “analysis. This venom was also exposed to 0 or 1 mM CORM-2 in the presence of 0 or 100 μM carboplatin in another series of experiments.” for “analysis.”
Given the aforementioned, the experimental conditions utilized were: 1) V condition—venom in PBS; 2) Ru(II) condition—venom exposed to CORM-2 or CORM-3; 3) Ru(III) condition—venom exposed to RuCl3; 4) Ru(II+III) condition—venom exposed to CORM-2 or CORM-3 and RuCl3 simultaneously; 5) Pt(II) condition—venom exposed to carboplatin; and 6) Pt+Ru condition—venom exposed to carboplatin and CORM-2.

[1] = test system: Calloselasma rhodostoma venom; assay: as above; type: biochemical; settings: venom exposed to 100 μM carboplatin, 100 μM CORM-2 or both; venom 5 μg/ml in plasma
Procedure: as §1
C. rhodostoma. […] The final concentration of this venom in plasma was 5 μg/ml.
as §3, §4
C. rhodostoma. […] This venom was also exposed to 0 or 100 μM CORM-2 in the presence of 0 or 100 μM carboplatin in another series of experiments. The final concentration of this venom in plasma was 5 μg/ml.

## N.N.O=C([O-])C1(C(=O)[O-])CCC1.[Pt+2] [carboplatin, reference compound]
Bothrops moojeni venom
  coagulation kinetic parameters: no significant change in any of the coagulation kinetic parameters
[1]
  procoagulant activity of venom: no significant effect
